Test results: ChEMBL document CHEMBL4052759, “Discovery of DS79182026: A potent orally active hepcidin production inhibitor” (Bioorg Med Chem Lett, 2017)
Each block holds one molecule with its values, some of them ahead of it.

Columns and labels:
[1] = target: Serine/threonine-protein kinase MARK1 (Homo sapiens) (UniProt Q9P0L2); test: Inhibition of MARK1 (unknown origin) at 0.078 uM relative to control
[2] = target: Mitogen-activated protein kinase kinase kinase kinase 4 (Homo sapiens) (UniProt O95819); test: Inhibition of HGK (unknown origin) at 0.078 uM relative to control
[3] = target: Rho-associated protein kinase 2 (Homo sapiens) (UniProt O75116); test: Inhibition of ROCK2 (unknown origin) at 0.078 uM relative to control
[4] = Volume of distribution in C57BL/6J mouse at 30 mg/kg, iv by LC-MS/MS analysis; type: ADME, organism-based; conditions: in vivo
[5] = target: RAF proto-oncogene serine/threonine-protein kinase (Homo sapiens) (UniProt P04049); test: Inhibition of c-Raf (unknown origin) at 0.078 uM relative to control
[6] = target: Insulin receptor (Homo sapiens) (UniProt P06213); test: Inhibition of INSR (unknown origin) at 0.49 uM relative to control
[7] = target: Tyrosine-protein kinase Fes/Fps (Homo sapiens) (UniProt P07332); test: Inhibition of FES (unknown origin) at 0.49 uM relative to control
[8] = target: T1, Serine/threonine-protein kinase 3 (Homo sapiens) (UniProt Q13188); test: Inhibition of MST2 (unknown origin) at 0.49 uM relative to control
T1 sequence (whole entry): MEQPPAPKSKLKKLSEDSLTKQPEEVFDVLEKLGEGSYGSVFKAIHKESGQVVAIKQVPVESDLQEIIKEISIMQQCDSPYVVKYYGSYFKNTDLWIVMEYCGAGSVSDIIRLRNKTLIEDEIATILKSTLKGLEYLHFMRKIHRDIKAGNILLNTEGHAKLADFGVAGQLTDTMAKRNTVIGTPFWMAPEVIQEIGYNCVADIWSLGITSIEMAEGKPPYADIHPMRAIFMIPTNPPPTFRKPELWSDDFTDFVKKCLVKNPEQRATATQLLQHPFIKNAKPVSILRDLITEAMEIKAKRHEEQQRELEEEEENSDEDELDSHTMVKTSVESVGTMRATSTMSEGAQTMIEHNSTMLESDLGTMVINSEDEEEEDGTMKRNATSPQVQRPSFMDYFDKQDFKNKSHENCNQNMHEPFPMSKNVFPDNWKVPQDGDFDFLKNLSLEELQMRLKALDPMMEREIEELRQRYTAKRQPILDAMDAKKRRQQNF

[9] = target: Rho-associated protein kinase 2 (Homo sapiens) (UniProt O75116); test: Inhibition of ROCK2 (unknown origin) at 0.49 uM relative to control
[10] = target: Receptor tyrosine-protein kinase erbB-4 (Homo sapiens) (UniProt Q15303); test: Inhibition of HER4 (unknown origin) at 0.49 uM relative to control
[11] = target: Calcium/calmodulin-dependent protein kinase type 1 (Homo sapiens) (UniProt Q14012); test: Inhibition of CaMK1a (unknown origin) at 0.49 uM relative to control
[12] = target: cAMP-dependent protein kinase catalytic subunit PRKX (Homo sapiens) (UniProt P51817); test: Inhibition of PRKX (unknown origin) at 0.49 uM relative to control
[13] = target: Mitogen-activated protein kinase kinase kinase kinase 4 (Homo sapiens) (UniProt O95819); test: Inhibition of HGK (unknown origin) at 0.49 uM relative to control
Homo sapiens = species on record: Homo sapiens; test: Inhibition of ACK (unknown origin) at 0.49 uM relative to control
[14] = target: Serine/threonine-protein kinase Chk2 (Homo sapiens) (UniProt O96017); test: Inhibition of CHK2 (unknown origin) at 0.49 uM relative to control
[15] = target: NT-3 growth factor receptor (Homo sapiens) (UniProt Q16288); test: Inhibition of TRKC (unknown origin) at 0.49 uM relative to control
[16] = target: T2, Serine/threonine-protein kinase Sgk1 (Homo sapiens) (UniProt O00141); test: Inhibition of SGK1 (unknown origin) at 0.49 uM relative to control
T2 sequence (whole entry): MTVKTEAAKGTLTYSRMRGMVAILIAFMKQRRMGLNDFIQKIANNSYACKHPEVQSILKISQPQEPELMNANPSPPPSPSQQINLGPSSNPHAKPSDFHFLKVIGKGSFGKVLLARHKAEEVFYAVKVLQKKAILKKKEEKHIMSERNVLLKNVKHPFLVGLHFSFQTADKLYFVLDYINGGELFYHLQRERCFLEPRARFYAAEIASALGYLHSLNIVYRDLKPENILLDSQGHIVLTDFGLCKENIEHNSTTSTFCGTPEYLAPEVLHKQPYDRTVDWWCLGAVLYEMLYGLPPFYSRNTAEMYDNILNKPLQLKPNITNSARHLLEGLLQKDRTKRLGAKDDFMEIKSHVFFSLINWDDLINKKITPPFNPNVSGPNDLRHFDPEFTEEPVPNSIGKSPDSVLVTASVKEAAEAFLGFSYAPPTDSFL

[17] = target: Tyrosine-protein kinase receptor TYRO3 (Homo sapiens) (UniProt Q06418); test: Inhibition of TYRO3 (unknown origin) at 0.49 uM relative to control
[18] = target: Tyrosine-protein kinase HCK (Homo sapiens) (UniProt P08631); test: Inhibition of Hck (unknown origin) at 0.45 uM relative to control
[19] = target: Serine/threonine-protein kinase BRSK2 (Homo sapiens) (UniProt Q8IWQ3); test: Inhibition of BRSK2 (unknown origin) at 0.45 uM relative to control
[20] = target: T3, Protein kinase C zeta type (Homo sapiens) (UniProt Q05513); test: Inhibition of PKC-zeta (unknown origin) at 0.45 uM relative to control
T3 sequence (whole entry): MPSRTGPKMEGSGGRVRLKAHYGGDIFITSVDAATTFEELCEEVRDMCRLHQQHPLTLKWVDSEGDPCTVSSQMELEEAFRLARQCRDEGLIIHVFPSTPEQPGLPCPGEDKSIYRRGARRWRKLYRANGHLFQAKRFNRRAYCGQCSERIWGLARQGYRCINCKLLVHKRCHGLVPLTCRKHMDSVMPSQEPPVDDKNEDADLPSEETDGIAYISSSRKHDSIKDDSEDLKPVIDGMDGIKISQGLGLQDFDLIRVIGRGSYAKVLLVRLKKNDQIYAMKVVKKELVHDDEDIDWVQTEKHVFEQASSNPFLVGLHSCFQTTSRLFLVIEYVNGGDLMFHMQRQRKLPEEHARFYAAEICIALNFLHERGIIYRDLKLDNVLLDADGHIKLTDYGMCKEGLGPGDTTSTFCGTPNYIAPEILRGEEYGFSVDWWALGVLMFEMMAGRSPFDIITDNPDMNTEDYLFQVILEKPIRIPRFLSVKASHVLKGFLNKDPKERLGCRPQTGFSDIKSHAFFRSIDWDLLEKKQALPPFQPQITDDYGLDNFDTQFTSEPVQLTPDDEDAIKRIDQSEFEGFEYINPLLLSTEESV

[21] = target: Death-associated protein kinase 3 (Homo sapiens) (UniProt O43293); test: Inhibition of ZIPK (unknown origin) at 0.45 uM relative to control

Rho-associated protein kinase 2 (Homo sapiens), sequence (O75116 whole entry, looked up): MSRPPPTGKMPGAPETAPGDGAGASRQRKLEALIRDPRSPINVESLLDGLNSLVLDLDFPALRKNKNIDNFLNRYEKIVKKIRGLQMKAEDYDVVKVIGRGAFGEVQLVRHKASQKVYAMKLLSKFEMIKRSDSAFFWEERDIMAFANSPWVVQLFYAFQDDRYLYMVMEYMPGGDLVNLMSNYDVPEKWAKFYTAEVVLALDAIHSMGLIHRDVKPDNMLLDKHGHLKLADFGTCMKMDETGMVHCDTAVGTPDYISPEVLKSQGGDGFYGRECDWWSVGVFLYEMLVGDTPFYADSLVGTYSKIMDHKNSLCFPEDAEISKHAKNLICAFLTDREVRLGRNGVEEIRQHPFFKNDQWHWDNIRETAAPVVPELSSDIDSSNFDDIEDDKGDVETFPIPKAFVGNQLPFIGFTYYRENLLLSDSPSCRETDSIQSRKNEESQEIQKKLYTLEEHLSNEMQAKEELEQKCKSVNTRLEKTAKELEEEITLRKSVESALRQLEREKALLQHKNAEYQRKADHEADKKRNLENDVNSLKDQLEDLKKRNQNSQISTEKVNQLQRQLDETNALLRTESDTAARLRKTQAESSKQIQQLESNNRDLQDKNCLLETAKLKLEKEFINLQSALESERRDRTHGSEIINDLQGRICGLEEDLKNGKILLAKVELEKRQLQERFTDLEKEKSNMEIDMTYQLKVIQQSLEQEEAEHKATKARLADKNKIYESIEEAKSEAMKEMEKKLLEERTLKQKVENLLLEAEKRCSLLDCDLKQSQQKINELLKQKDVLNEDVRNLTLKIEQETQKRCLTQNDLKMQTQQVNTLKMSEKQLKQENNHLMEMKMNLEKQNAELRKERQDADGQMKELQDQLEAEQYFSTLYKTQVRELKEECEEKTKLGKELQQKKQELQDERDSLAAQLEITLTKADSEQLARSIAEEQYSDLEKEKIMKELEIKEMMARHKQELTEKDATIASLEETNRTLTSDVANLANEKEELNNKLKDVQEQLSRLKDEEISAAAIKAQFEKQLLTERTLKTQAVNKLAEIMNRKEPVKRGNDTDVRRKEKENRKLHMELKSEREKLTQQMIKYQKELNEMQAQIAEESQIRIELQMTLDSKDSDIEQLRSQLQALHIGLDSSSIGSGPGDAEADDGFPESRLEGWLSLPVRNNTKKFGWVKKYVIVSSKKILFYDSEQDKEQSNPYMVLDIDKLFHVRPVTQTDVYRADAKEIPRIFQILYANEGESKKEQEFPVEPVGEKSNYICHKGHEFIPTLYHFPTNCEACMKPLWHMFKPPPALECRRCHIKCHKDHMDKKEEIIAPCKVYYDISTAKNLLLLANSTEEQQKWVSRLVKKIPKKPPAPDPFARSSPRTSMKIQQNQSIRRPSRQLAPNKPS
Mitogen-activated protein kinase kinase kinase kinase 4 (Homo sapiens), sequence (O95819 2-1239 limits assumed): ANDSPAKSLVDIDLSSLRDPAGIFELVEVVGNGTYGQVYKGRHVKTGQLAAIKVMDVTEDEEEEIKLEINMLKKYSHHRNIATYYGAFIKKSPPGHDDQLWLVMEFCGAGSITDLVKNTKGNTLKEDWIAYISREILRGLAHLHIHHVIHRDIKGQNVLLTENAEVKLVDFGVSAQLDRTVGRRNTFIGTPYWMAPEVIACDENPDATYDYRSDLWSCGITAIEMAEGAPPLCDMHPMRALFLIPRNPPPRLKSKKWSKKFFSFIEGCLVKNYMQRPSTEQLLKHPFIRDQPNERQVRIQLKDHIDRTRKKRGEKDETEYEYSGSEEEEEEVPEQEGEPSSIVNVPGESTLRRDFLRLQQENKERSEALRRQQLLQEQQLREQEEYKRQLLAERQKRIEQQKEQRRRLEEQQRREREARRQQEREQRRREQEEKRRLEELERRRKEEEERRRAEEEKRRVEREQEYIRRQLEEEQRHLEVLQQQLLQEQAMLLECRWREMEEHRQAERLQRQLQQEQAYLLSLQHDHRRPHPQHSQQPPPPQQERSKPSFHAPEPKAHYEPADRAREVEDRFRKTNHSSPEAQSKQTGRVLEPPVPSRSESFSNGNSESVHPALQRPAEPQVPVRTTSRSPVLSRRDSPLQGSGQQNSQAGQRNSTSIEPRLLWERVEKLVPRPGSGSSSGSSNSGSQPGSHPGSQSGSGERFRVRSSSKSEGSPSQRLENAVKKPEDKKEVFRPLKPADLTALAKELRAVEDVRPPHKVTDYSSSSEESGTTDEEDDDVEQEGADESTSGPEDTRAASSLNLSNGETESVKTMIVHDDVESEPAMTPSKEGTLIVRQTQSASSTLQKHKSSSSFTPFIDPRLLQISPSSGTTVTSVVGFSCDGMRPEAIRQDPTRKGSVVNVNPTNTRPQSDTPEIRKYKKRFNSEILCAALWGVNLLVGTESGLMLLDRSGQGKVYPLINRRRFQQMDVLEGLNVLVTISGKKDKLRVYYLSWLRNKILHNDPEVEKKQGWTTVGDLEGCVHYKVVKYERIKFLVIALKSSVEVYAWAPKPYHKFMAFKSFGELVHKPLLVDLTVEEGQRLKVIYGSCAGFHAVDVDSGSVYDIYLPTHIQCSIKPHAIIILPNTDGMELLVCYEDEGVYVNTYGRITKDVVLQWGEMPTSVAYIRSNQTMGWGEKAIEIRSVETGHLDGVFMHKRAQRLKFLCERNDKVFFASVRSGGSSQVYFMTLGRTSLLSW
RAF proto-oncogene serine/threonine-protein kinase (Homo sapiens), sequence (P04049 whole entry): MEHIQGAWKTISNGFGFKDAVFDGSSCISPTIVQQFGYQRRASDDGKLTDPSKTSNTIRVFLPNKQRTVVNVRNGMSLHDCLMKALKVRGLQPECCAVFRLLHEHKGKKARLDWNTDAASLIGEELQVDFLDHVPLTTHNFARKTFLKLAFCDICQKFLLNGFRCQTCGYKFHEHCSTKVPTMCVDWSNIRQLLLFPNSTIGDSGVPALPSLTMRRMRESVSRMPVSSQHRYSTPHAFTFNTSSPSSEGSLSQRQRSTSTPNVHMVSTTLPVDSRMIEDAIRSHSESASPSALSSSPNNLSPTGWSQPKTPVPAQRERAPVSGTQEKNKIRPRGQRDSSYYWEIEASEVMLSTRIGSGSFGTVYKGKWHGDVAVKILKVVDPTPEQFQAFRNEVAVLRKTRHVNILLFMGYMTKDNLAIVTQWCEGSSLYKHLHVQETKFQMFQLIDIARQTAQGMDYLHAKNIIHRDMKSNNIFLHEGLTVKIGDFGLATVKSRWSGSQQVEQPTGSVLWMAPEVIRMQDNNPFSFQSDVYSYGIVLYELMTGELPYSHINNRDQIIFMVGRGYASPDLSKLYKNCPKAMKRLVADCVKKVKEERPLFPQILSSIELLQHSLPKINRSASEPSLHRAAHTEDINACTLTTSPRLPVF
NT-3 growth factor receptor (Homo sapiens), sequence (Q16288 32-839 limits assumed): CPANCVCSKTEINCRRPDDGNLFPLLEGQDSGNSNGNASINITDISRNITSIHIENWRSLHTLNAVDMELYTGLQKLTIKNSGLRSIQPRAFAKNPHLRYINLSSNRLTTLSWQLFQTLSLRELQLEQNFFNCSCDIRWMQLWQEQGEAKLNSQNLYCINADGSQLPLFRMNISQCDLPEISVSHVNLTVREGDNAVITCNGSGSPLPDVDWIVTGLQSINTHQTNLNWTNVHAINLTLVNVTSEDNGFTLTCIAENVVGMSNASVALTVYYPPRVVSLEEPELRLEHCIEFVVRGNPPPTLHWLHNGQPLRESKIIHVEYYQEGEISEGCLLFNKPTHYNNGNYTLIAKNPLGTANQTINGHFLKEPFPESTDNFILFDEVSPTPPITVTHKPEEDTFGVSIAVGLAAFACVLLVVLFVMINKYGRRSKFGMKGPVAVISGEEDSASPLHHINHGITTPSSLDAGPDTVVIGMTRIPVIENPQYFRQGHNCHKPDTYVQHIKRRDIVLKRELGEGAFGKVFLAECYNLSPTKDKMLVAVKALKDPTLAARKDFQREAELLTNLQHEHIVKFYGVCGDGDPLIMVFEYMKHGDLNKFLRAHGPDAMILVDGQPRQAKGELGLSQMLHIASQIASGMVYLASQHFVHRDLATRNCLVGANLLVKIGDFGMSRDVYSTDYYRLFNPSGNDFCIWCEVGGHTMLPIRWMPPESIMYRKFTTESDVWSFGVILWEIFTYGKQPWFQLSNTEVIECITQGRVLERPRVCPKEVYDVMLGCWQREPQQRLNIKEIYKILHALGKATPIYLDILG
Tyrosine-protein kinase receptor TYRO3 (Homo sapiens), sequence (Q06418 whole entry): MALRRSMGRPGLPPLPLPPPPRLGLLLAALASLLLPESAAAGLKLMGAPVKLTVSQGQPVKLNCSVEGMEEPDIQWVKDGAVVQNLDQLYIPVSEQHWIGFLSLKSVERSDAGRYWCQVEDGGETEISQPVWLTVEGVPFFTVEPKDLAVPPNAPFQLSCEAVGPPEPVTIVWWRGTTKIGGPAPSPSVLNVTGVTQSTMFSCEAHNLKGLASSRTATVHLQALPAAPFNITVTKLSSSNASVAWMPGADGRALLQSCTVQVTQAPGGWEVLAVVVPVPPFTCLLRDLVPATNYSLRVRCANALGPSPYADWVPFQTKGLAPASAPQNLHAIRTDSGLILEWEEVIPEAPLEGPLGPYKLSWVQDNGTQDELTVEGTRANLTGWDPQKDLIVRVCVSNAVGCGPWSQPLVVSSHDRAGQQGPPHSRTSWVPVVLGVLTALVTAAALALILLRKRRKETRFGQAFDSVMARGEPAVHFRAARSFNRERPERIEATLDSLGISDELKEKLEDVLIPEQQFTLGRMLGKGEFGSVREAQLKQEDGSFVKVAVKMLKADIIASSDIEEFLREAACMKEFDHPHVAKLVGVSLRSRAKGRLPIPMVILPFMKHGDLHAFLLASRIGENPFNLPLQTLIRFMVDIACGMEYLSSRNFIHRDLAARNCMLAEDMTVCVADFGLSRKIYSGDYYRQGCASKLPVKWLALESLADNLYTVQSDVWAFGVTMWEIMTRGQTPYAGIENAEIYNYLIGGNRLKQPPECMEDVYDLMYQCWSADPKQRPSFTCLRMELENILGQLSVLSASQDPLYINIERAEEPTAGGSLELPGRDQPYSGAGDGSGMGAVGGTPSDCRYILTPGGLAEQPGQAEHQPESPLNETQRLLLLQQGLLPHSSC

inhibition [1]: 3.3%
inhibition [2]: 40.7%
inhibition [3]: -2%
Vd [4]: 0.91 L/kg
inhibition [5]: 0.7%
SMILES: COC(=O)Nc1noc2cc(-c3c(-c4ccccn4)n[nH]c3C)ccc12

inhibition [6]: 2.3%
inhibition [7]: -5.3%
inhibition [8]: 1%
inhibition [9]: 8.7%
inhibition [10]: -10%
inhibition [11]: 2.3%
inhibition [12]: -1.7%
inhibition [13]: 4%
inhibition (Homo sapiens): 2.3%
inhibition [14]: 8%
inhibition [15]: 6.3%
inhibition [16]: 2.3%
inhibition [17]: 8.7%
SMILES: Cc1[nH]nc(C2CC2)c1-c1ccc2c(NC(=O)C3CC3)noc2c1

inhibition [18]: 30.3%
inhibition [19]: 13.3%
inhibition [20]: 7%
SMILES: Cc1n[nH]c(C)c1-c1ccc2c(NC(=O)c3ccc(N4CCN(C)CC4)cc3)n[nH]c2c1
inhibition [21]: 0.3%
